Experimental data as given in patent US10836793B2, “Compounds for the treatment of neurodegenerative diseases” (University of South Florida, priority 2018, dated 2020).

How the values were obtained:
Aβ42 [1] = target: T1, Aβ42 (Homo sapiens, UniProt P05067); assay: Western blot of Aβ42 aggregation; type: biochemical; settings: 40 μM HW-C-9 and 20 μM Aβ; FIG. 6A
T1 construct: and 42 amino acids in length (Aβ42)
Experimental: (§1) Shown in FIG. 6A is a Western blot of Aβ42, wherein lane 1 is 20 μM of Aβ, lane 2 is 40 μM of HW-155-1 as a control and 20 μM of Aβ, and lane 3 is 40 μM of HW-C-9 and 20 μM of Aβ. Shown in FIG. 6B on the left is mouse brain tissue incubated overnight with and without 25 μM of HW-C-9, and then immunohistochemically stained with Aβ42 antibodies. On the right of FIG. 6B is a graphical quantification of the density and strength of the antibody stains.

[2] = target: human recombinant alpha-synuclein (Homo sapiens, UniProt P37840); assay: Western blot of alpha-synuclein aggregation; type: biochemical; settings: aggregated for 7 days in the presence of 25 μg/mL HW-C-9; FIG. 7
Experimental: The effect of HW-C-9 on synuclein was analyzed with a Western blot. Results are shown in FIG. 7, wherein lane 1 is human recombinant alpha-synuclein (stained with goat anti-human alpha-synuclein antibody) without aggregation as a control, lane 2 is human recombinant alpha-synuclein (stained with goat anti-human alpha-synuclein antibody) aggregated for 7 days, and lane 3 is human recombinant alpha-synuclein (stained with goat anti-human alpha-synuclein antibody) aggregated for 7 days in the presence of 25 μg/mL of HW-C-9.

[3] = system: recombinant human tau protein; assay: ThT assay of tau protein aggregation; type: biochemical; settings: 100, 50, 20, 10 and 1 μM HW-C-9; Tau 10 μM; FIG. 5
Experimental: (§2) The effect of HW-C-9 on Aβ42 was analyzed using the Thioflavin T (ThT) spectroscopic assay. Thioflavin T (ThT) is a benzothiazole salt obtained by the methylation of dehydrothiotoluidine with methanol in the presence of hydrochloric acid. ThT was used as a dye to visualize and quantify the presence or fibrilization of misfolded protein aggregates. Briefly, HW-C-9 in Tris Buffered Saline (TBS, pH 7.5) containing 10 μM ThT was added into a black 96 well plate. Aβ42 protein monomer was freshly thawed and used to make a stock 5 μM solution in TBS. An equal volume of Aβ42 solution was added to each well to a final concentration of 2.5 μM Aβ42 and incubated at 37° C. Time-dependent fluorescence change was monitored by a Synergy 2 plate reader at an excitation wavelength of 440 nm and emission at 482 nm. The fluorescence intensity of ThT was measured over time, as ThT changed fluorescence intensity upon binding to the Aβ42 protein aggregates. 100% aggregation was defined as the fluorescence change of 2.5 μM Aβ42 in TBS buffer containing 5 μM ThT after 24 hours.
The effect of HW-C-9 on recombinant human tau protein was analyzed using the ThT assay, as detailed in Example 2, but with tau protein in place of Aβ42. In FIG. 5, C1 is 100 μM of HW-C-9, C2 is 50 μM of HW-C-9, C3 is 20 μM of HW-C-9, C4 is 10 μM of HW-C-9, and C5 is 1 μM of HW-C-9. […]

[4] = system: Aβ42 amyloid plaques in mouse brain tissue; assay: Mouse brain tissue incubated with compound, immunohistochemical staining with Aβ42 antibodies; settings: mouse brain tissue incubated overnight with 25 μM HW-C-9; FIG. 6B
Experimental: as §1

Aβ42 [5] = target: T1, Aβ42; assay: Thioflavin T (ThT) spectroscopic assay of Aβ42 aggregation; type: biochemical; settings: 1, 5 and 10 μM HW-C-9; Aβ42 5 μM; 37° C.; FIG. 4
Experimental: as §2
In FIG. 4, C1 is 1 μM of HW-C-9, C3 is 5 μM of HW-C-9, and C4 is 10 μM of HW-C-9. Aβ42 was present in all samples at a concentration of 5 μM. The top curve (red line, “Agg”) is the Aβ42-only control.

T1 sequence (P05067 672-713 limits assumed): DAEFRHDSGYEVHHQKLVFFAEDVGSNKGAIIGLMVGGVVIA

**Q.** Which results are given for C=CCOC(=O)N(CC(=O)N[C@@H](Cc1ccccc1)CN(CC(=O)N[C@@H](CCCCN)CN(CC(=O)N[C@@H](CC(C)C)CN(CC(=O)NCCCCCCCC(=O)NCCCC[C@H](NC(=O)CCCCCCCNC(=O)CN(C[C@H](CC(C)C)NC(=O)CN(C[C@H](CCCCN)NC(=O)CN(C[C@H](Cc1ccccc1)NC(=O)CN(C[C@@H](N)CCCCN)C(=O)OCC=C)C(=O)CCc1ccccc1)C(=O)CC(C)C)C(=O)CC(C)C)C(N)=O)C(=O)CC(C)C)C(=O)CC(C)C)C(=O)CCc1ccccc1)C[C@@H](N)CCCCN [HW-C-9]?
**A.** inhibition of Aβ42 aggregation (Western blot) (Aβ42 [1]): can inhibit aggregation of Aβ42; inhibition of alpha-synuclein aggregation (Western blot) [2]: can inhibit aggregation of alpha-synuclein; inhibition of tau protein aggregation (ThT fluorescence) [3]: can inhibit aggregation of tau protein at all concentrations tested; removal of amyloid plaques (density and strength of Aβ42 antibody stains) [4]: remove amyloid plaques; inhibition of Aβ42 aggregation (ThT fluorescence) (Aβ42 [5]): can inhibit Aβ42 aggregation at all concentrations tested
